Where “and” joins values, the source holds several entries; their conditions need not be identical. Equal values may be shown once. Entries after “also recorded” stand apart in the source; their conditions may differ. Read-outs that look alike come from different tables or passages of the source.
Experiment: Plasma kinetics in rat following intravenous and oral administration
Assay type: in vivo, Sprague Dawley rats
Details: male rats; for concentration at 24 h: iv; for MRT: read-out: MRT
Procedure: This study determined the intravenous pharmacokinetics and oral bioavailability of compound 1 of the invention (see FIG. 1A, structure no. 1), compound 2 of the invention (see FIG. 1D, structure no. 19) and compound 3 of the invention (see FIG. 1I, structure no. 53) following administration to Sprague Dawley rats at a dose level of 10 mg/kg.
Six groups of 3 male rats received either a single intravenous or single oral administration of compound 1, 2 or 3 of the invention at a dose level of 10 mg/kg. Blood samples were obtained at various times after dosing. Plasma samples were analysed for unchanged test item using a suitable LC-MS/MS method. Pharmacokinetic parameters were estimated from individual plasma concentrations.
Eighteen male rats each received either a single intravenous or a single oral administration of either compound 1, 2 or 3 at a dose level of 10 mg/kg. The formulation was orally administered to each animal by gastric gavage and intravenously administered to each animal via a tail vein. The dose was administered at a dose volume of 5 mL/kg. The formulations were administered to each animal according to the details in the following table:
Blood samples (ca 0.3 mL) were removed from the femoral vein of each animal into tubes containing lithium heparin as anticoagulant.
Blood samples were collected from 3 rats at the following times after dose administration: • 3, 6, 15, 45 min and 1.5, 2.5, 4, 6, 8, 24 h post dose. Oral Administration
Blood samples were collected from 3 rats at the following times after dose administration: • 5, 15, 45 min and 1.5, 2.5, 4, 6, 8, 24 h post dose. Processing of Blood Samples
Pharmacokinetic parameters of compound 1, 2 and 3 were derived by non-compartmental analysis using WinNonLin Pro version 5.0.1 (Pharsight 2005). The following parameters were derived, where appropriate, from the individual plasma concentration versus time profiles:
• F % The absolute oral bioavailability calculated as [AUC0-t (oral)*Dose(iv)/AUC0-t (iv)*Dose (oral)]*100 based on mean values derived after oral and intravenous administration Consideration was given to the estimation of λz and corresponding t1/2 values. Three or more points are required within the terminal phase for λz and t1/2 to be estimated. The following additional variables were tabulated to aid identification of potentially unreliable estimates of t1/2 and AUC:
Pharmacokinetic parameters were reported as geometric mean except Tmax which was reported as the median. Geometric coefficient of variation was calculated as: […]
Actual sampling times were used for all calculations of pharmacokinetic parameters. Plasma concentrations that were below the limit of quantification were taken as zero for the pharmacokinetic analysis.

[1] = male, Sprague Dawley, rat, plasma, po, 10 mg/kg, oral 10 mg/kg, individual animals
[2] = oral 10 mg/kg, individual animals, acetate, 10 mg/kg

## N=C(N)NN=CC=Cc1cccn1-c1ccccc1[N+](=O)[O-] [Compound 2, [1-(2-nitrophenyl)-1H-pyrrol-2-yl-allylideneamino]guanidinium acetate]
male, Sprague Dawley, rat, plasma, 10 mg/kg, single intravenous 10 mg/kg, 24 h, individual animals, LLOQ 2.50, read-out: Sample Concentration in plasma
  concentration at 24 h: 3.95 ng/mL
male, Sprague Dawley, rat, plasma, 10 mg/kg, single intravenous 10 mg/kg, 24 h, mean, read-out: Mean Concentration in plasma
  concentration at 24 h: 3.95 ng/mL
male, Sprague Dawley, rat, plasma, po, 10 mg/kg, oral 10 mg/kg, Arithmetic Mean, read-out: AUC0-t
  AUC(0-t): 67.4 ng·h/mL
male, Sprague Dawley, rat, plasma, po, 10 mg/kg, oral 10 mg/kg, Arithmetic Mean, read-out: Cmax
  Cmax: 31.2 ng/mL
male, Sprague Dawley, rat, plasma, po, 10 mg/kg, oral 10 mg/kg, Arithmetic Mean, read-out: tmax
  Tmax: 1.75 h
male, Sprague Dawley, rat, plasma, po, 10 mg/kg, oral 10 mg/kg, Geometric mean, read-out: AUC0-t
  AUC(0-t): 66.1 ng·h/mL
male, Sprague Dawley, rat, plasma, po, 10 mg/kg, oral 10 mg/kg, Geometric mean, read-out: Cmax
  Cmax: 26.3 ng/mL
male, Sprague Dawley, rat, plasma, po, 10 mg/kg, oral 10 mg/kg, Geometric mean
  MRT: 3.06 h
male, Sprague Dawley, rat, plasma, po, 10 mg/kg, oral 10 mg/kg, Geometric mean, read-out: t1/2 (converted)
  half-life: 2.25 h
male, Sprague Dawley, rat, plasma, po, 10 mg/kg, oral 10 mg/kg, Geometric mean, read-out: tmax
  Tmax: 1.16 h
male, Sprague Dawley, rat, plasma, po, 10 mg/kg, oral 10 mg/kg, Median, read-out: AUC0-t
  AUC(0-t): 62.6 ng·h/mL
male, Sprague Dawley, rat, plasma, po, 10 mg/kg, oral 10 mg/kg, Median, read-out: Cmax
  Cmax: 18.8 ng/mL
male, Sprague Dawley, rat, plasma, po, 10 mg/kg, oral 10 mg/kg, Median, read-out: tmax
  Tmax: 2.5 h
[1]
  AUC(0-inf): 102 ng·h/mL
  MRT: 3.06 h
male, Sprague Dawley, rat, plasma, po, 10 mg/kg, oral 10 mg/kg, individual animals, read-out: AUC0-t
  AUC(0-t): 85.6 ng·h/mL
male, Sprague Dawley, rat, plasma, po, 10 mg/kg, oral 10 mg/kg, individual animals, read-out: t1/2 (converted)
  half-life: 2.25 h
male, Sprague Dawley, rat, plasma, po, 10 mg/kg, oral 10 mg/kg, from mean plasma concentrations, read-out: time post dose at which maximum plasma concentration was observed (tmax)
  Tmax: 2.5 h
male, Sprague Dawley, rat, plasma, po, 10 mg/kg, oral 10 mg/kg, read-out: apparent terminal half-life (converted)
  half-life: 2.25 h
male, Sprague Dawley, rat, plasma, po, 10 mg/kg, single oral 10 mg/kg, 0.05 h, individual animals, LLOQ 2.50, read-out: Sample Concentration in plasma
  concentration at 0.05 h: 4.68 ng/mL
male, Sprague Dawley, rat, plasma, po, 10 mg/kg, single oral 10 mg/kg, 0.05 h, mean, read-out: Mean Concentration in plasma
  concentration at 0.05 h: 4.68 ng/mL
male, Sprague Dawley, rat, plasma, po, 10 mg/kg, single oral 10 mg/kg, 0.25 h, mean of 3, read-out: Mean Concentration in plasma
  concentration at 0.25 h: 25.5 ng/mL
male, Sprague Dawley, rat, plasma, po, 10 mg/kg, single oral 10 mg/kg, 0.75 h, mean of 3, read-out: Mean Concentration in plasma
  concentration at 0.75 h: 13.9 ng/mL
male, Sprague Dawley, rat, plasma, po, 10 mg/kg, single oral 10 mg/kg, 1.5 h, individual animals, read-out: Sample Concentration in plasma
  concentration at 1.5 h: 9.56 ng/mL
male, Sprague Dawley, rat, plasma, po, 10 mg/kg, single oral 10 mg/kg, 1.5 h, mean of 3, read-out: Mean Concentration in plasma
  concentration at 1.5 h: 12.3 ng/mL
male, Sprague Dawley, rat, plasma, po, 10 mg/kg, single oral 10 mg/kg, 2.5 h, individual animals, read-out: Sample Concentration in plasma
  concentration at 2.5 h: 16.5 ng/mL
male, Sprague Dawley, rat, plasma, po, 10 mg/kg, single oral 10 mg/kg, 2.5 h, mean of 3, read-out: Mean Concentration in plasma
  concentration at 2.5 h: 17.1 ng/mL
male, Sprague Dawley, rat, plasma, po, 10 mg/kg, single oral 10 mg/kg, 4 h, mean of 3, read-out: Mean Concentration in plasma
  concentration at 4 h: 7.91 ng/mL
male, Sprague Dawley, rat, plasma, po, 10 mg/kg, single oral 10 mg/kg, 6 h, individual animals, read-out: Sample Concentration in plasma
  concentration at 6 h: 2.76 ng/mL
male, Sprague Dawley, rat, plasma, po, 10 mg/kg, single oral 10 mg/kg, 6 h, mean of 3, read-out: Mean Concentration in plasma
  concentration at 6 h: 3.81 ng/mL
Oral 10 mg/kg, individual animals
  MAT: -0.465 h
[2]
  AUC(0-t): 62.6 ng·h/mL and 54.0 ng·h/mL
  Cmax: 58.4 ng/mL and 16.5 ng/mL
  Tmax: 0.250 h
Oral 10 mg/kg, at tmax
  maximum observed plasma concentration, mean value: 17.1 ng/mL
Single intravenous 10 mg/kg, 0.05 h, individual animals, acetate, 10 mg/kg
  Sample Concentration in plasma: 2270 ng/mL and 3150 ng/mL
Single intravenous 10 mg/kg, 0.1 h, individual animals, acetate, 10 mg/kg
  Sample Concentration in plasma: 1020 ng/mL and 1410 ng/mL
Single intravenous 10 mg/kg, 0.25 h, individual animals, acetate, 10 mg/kg
  Sample Concentration in plasma: 612 ng/mL and 712 ng/mL
Single intravenous 10 mg/kg, 0.75 h, individual animals, acetate, 10 mg/kg
  Sample Concentration in plasma: 237 ng/mL and 334 ng/mL
Single intravenous 10 mg/kg, 1.5 h, individual animals, acetate, 10 mg/kg
  Sample Concentration in plasma: 232 ng/mL and 168 ng/mL
Single intravenous 10 mg/kg, 2.5 h, individual animals, acetate, 10 mg/kg
  Sample Concentration in plasma: 183 ng/mL and 194 ng/mL
Single intravenous 10 mg/kg, 4 h, individual animals, acetate, 10 mg/kg
  Sample Concentration in plasma: 158 ng/mL and 115 ng/mL
Single intravenous 10 mg/kg, 6 h, individual animals, acetate, 10 mg/kg
  Sample Concentration in plasma: 116 ng/mL and 58.1 ng/mL
Single intravenous 10 mg/kg, 8 h, individual animals, LLOQ 2.50, acetate, 10 mg/kg
  Sample Concentration in plasma: 42.7 ng/mL and 98.4 ng/mL and 54.1 ng/mL
Single intravenous 10 mg/kg, 24 h, individual animals, LLOQ 2.50, acetate, 10 mg/kg
  Sample Concentration in plasma: <LLOQ
Single intravenous or oral administration, 10 mg/kg, acetate
  adverse effects: No adverse effects; also recorded: No adverse affects
Single oral 10 mg/kg, 0.05 h, individual animals, LLOQ 2.50, acetate, 10 mg/kg
  Sample Concentration in plasma: <LLOQ
Single oral 10 mg/kg, 0.25 h, individual animals, acetate, 10 mg/kg
  Sample Concentration in plasma: 9.11 ng/mL and 9.01 ng/mL and 58.4* ng/mL
Single oral 10 mg/kg, 0.75 h, individual animals, acetate, 10 mg/kg
  Sample Concentration in plasma: 9.02 ng/mL and 10.4 ng/mL and 22.4 ng/mL
Single oral 10 mg/kg, 1.5 h, individual animals, acetate, 10 mg/kg
  Sample Concentration in plasma: 9.84 ng/mL and 17.4 ng/mL
Single oral 10 mg/kg, 2.5 h, individual animals, acetate, 10 mg/kg
  Sample Concentration in plasma: 18.8 ng/mL and 16.1 ng/mL
Single oral 10 mg/kg, 4 h, individual animals, acetate, 10 mg/kg
  Sample Concentration in plasma: 12.6 ng/mL and 4.79 ng/mL and 6.35 ng/mL
Single oral 10 mg/kg, 6 h, individual animals, acetate, 10 mg/kg
  Sample Concentration in plasma: 3.74 ng/mL and 4.94 ng/mL
Single oral 10 mg/kg, 8 h, individual animals, LLOQ 2.50
  Sample Concentration in plasma: <LLOQ
Single oral 10 mg/kg, 8 h, mean, LLOQ 2.50
  Mean Concentration in plasma: <LLOQ
Single oral 10 mg/kg, 24 h, individual animals, LLOQ 2.50
  Sample Concentration in plasma: <LLOQ
Single oral 10 mg/kg, 24 h, mean, LLOQ 2.50
  Mean Concentration in plasma: <LLOQ
